# In PubChem BioAssay (NCI):
#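 Tested at 5 concentrations; 48 h exposure; 96-well plates; endpoints linearly interpolated, else capped at highest concentration. The concentration for 50% growth inhibition is given as GI50. Definition used: TGI = concentration required for complete inhibition of growth.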
# Key:
# Test in all cases: DTP human tumour cell line panel, 48 h
# [1] = system: HCT-15 colon
# [2] = system: HS 578T breast
# [3] = system: HT29 colon
# [4] = system: OVCAR-3 ovarian
# [5] = system: OVCAR-4 ovarian
# [6] = system: SF-539 CNS
# [7] = system: SK-MEL-2 melanoma
# [8] = system: SNB-75 CNS
# [9] = system: U251 CNS
# [10] = system: T-47D breast
Structure (SMILES),TGI [1] [µM],TGI [2] [µM],TGI [3] [µM],TGI [4] [µM],TGI [5] [µM],TGI [6] [µM],TGI [7] [µM],TGI [8] [µM],TGI [9] [µM],GI50 [1] [µM],GI50 [2] [µM],GI50 [3] [µM],GI50 [4] [µM],GI50 [5] [µM],GI50 [6] [µM],GI50 [7] [µM],GI50 [8] [µM],GI50 [9] [µM],TGI [10] [µM],GI50 [10] [µM]
COc1ccc(/C=C2\CCC(CN(C)C)C2=O)cc1 (stereo unspecified),6.49,> 100,24.1,10.6,16.1,16,17.6,25.6,32.7,,,,,,,,,,,
Cn1c(=O)ccc2cc(C(=O)c3ccccc3)ccc21,> 100,,> 100,> 100,> 100,> 100,> 100,54.3,> 100,,,,,,,,,,,
O=C1OC(=O)C2C1C1(c3ccccc3)OC2(c2ccccc2)c2c(Br)c(Br)c(Br)c(Br)c21 (stereo unspecified),> 100,,> 100,> 100,> 100,> 100,> 100,> 100,> 100,,,,,,,,,,,
CC12CCC(C)(c3cc(O)c(O)cc31)c1cc(O)c(O)cc12,29.3,,33.2,32.6,28.7,,> 100,52.5,,,,,,,,,,,,
CCCCCCCCCCCC(=O)[O][Sn]([CH2]CCC)([CH2]CCC)[CH2]CCC,0.168,0.296,0.11,0.125,0.153,0.141,0.13,0.113,0.125,0.0456,0.0549,0.0355,0.0518,< 0.0212,0.0609,0.0555,0.0282,0.0442,,
Cc1ccc(Sc2cc([N+](=O)[O-])cc(Sc3ccc(C)cc3)c2Sc2ccc(C)cc2)cc1,> 100,,> 100,> 100,,> 100,> 100,> 100,> 100,,,,,,,,,,,
Cn1c(=O)c2nc3sc4ccccc4c(=N)n3c2n(C)c1=O,,,> 100,,> 100,> 100,> 100,,,,,,,,,,,,,
Fc1cccc(C2SCc3nc4ccccc4n32)c1 (stereo unspecified),,,> 100,> 100,,> 100,> 100,> 100,,,,,,,,,,,,
CC(=O)NC1C(OCc2ccccc2)OC(COC(=O)CCCCCCCCCCNC(=O)CCNc2ccc([N+](=O)[O-])c3[nH]c4ccc(O)cc4c(=O)c23)C(O)C1OC(C)C(=O)N[C@H](C(=O)N[C@H](CCC(=O)O)C(N)=O)C(C)C (stereo partly specified),> 100,,> 100,> 100,> 100,> 100,> 100,64.8,> 100,,,,,,,,,,,
NCCCSCC(=O)O,> 100,,> 100,> 100,> 100,> 100,> 100,> 100,> 100,,,,,,,,,,,
OC(c1cc2c(Cl)cc(Cl)cc2c2cc(C(F)(F)F)ccc12)C1CCCCN1 (stereo unspecified),,3.72,3.71,3.52,4.08,,4.12,3.36,,,1.59,1.97,1.91,2.11,,2.27,1.79,,,
CC(=O)O[C@H]1CC[C@@]2(C)[C@@H](CC[C@@H]3[C@@H]2CC(=O)[C@@]2(C)[C@H]3C[C@@H]3CC(C)=CC(=O)[C@@H]32)C1,> 100,80.3,> 100,> 100,> 100,,> 100,73.8,> 100,,,,,,,,,,> 100,
O=CN/C=C\c1cc(O)ccc1O,23.7,,> 31.6,25,26.8,> 49.6,> 100,> 100,> 81,,,,,,,,,,,
Nc1c(S(=O)(=O)O)cc2c(c1Cl)C(=O)c1ccccc1C2=O,> 100,> 100,> 100,> 100,,> 100,,> 100,> 100,> 100,> 100,> 100,> 100,,> 100,,> 100,> 100,> 100,> 100
CC(=O)Oc1cc(OC(C)=O)c(OC(C)=O)c2c1CC1C(=O)C3(CCc4ccccc43)C(=O)C1C2 (stereo unspecified),39.5,,40.9,16.6,24.1,,,16.7,29.2,,,,,,,,,,,
O=c1cc(/C=C/c2ccccc2)c2ccc(O/C(=C\c3ccccc3)c3nc4ccccc4c(=O)o3)cc2o1,> 100,,,81.1,> 100,63.2,77.7,,> 100,,,,,,,,,,,
CC(NC(=O)C1(N)CCCC1)C(=O)O (stereo unspecified),> 100,> 100,> 100,> 100,> 100,,> 100,> 100,> 100,,,,,,,,,,> 100,
C=C(C=O)[C@@H]1CC=C(C=O)CC1,10.1,42.4,> 100,,> 100,33.5,92.5,> 100,6.71,2.4,3.36,3.54,,4.19,9.88,25.6,15.9,2.4,26.4,3.06
COc1cccc(/C=N/[N-]C(N)=O)c1[O-].[Cu+2].c1ccncc1,> 100,,85.3,28.8,56.2,54.2,58.5,33.4,32.2,,,,,,,,,,,
NC1=C(O)/C(=N/NS(=O)(=O)c2ccccc2)C(c2cccc(Cl)c2)O1 (stereo unspecified),27,95.1,55,55.5,> 100,> 81.8,66,> 80.4,55.7,,,,,,,,,,,
O=C1OC(/C=C/c2ccccc2)C(=O)C1=O (stereo unspecified),> 100,,> 100,,> 100,> 100,> 100,> 100,> 100,,,,,,,,,,,
CCC1(O)CC(c2ccccc2)N(C)C(c2ccccc2)C1 (stereo unspecified),> 100,,> 100,> 100,> 100,> 100,> 100,> 100,> 100,,,,,,,,,,,

Structure (SMILES),TGI [1] [µM],TGI [2] [µM],TGI [3] [µM],TGI [4] [µM],TGI [5] [µM],TGI [6] [µM],TGI [7] [µM],TGI [8] [µM],TGI [9] [µM],GI50 [1] [µM],GI50 [2] [µM],GI50 [3] [µM],GI50 [4] [µM],GI50 [5] [µM],GI50 [6] [µM],GI50 [7] [µM],GI50 [8] [µM],GI50 [9] [µM],TGI [10] [µM],GI50 [10] [µM]
C=C1[C@@H]2CCC(C)(C)[C@H]1CCC(=O)[C@@H]2C(=O)OC,> 100,,> 100,> 100,> 100,> 100,> 100,,> 100,,,,,,,,,,,
Nc1nc(-c2ccccc2Cl)cc(-c2ccc(Cl)cc2Cl)n1,> 100,60.7,24.3,20.7,89.7,67,44.8,,> 100,5.09,6.04,4.32,4.05,12.1,7.39,6.1,,11.1,> 100,6.58
CC1(C)OC(=O)C(c2ccsc2)C(=O)O1,> 100,,> 100,> 100,> 100,> 100,> 100,> 100,> 100,,,,,,,,,,,
O=C(c1ccccc1)C(c1ccccc1)C1(O)C(=O)Nc2ccc(Br)cc21 (stereo unspecified),> 100,,> 100,> 100,> 100,> 100,> 100,> 100,> 100,,,,,,,,,,,
COc1ccc2c(C(=O)NCCCCCC(=O)O)cc3cc4c(cc3c2c1)OCO4,> 100,> 100,> 100,> 100,,> 100,,97.9,> 100,> 100,> 100,> 100,> 100,,> 100,,23.9,> 100,> 100,80
C[C@]12CC[C@H](O)CC1CCC[C@@H]2O (stereo partly specified),> 100,,> 100,> 100,> 100,> 100,> 100,> 100,> 100,,,,,,,,,,,
c1ccc2c(c1)-c1nc3ccccc3cc1C2N1CCOCC1 (stereo unspecified),> 100,> 100,> 100,> 100,> 100,,> 100,> 100,> 100,,,,,,,,,,> 100,
O=C1C2Cc3ccccc3CN2C(=O)N1CCN1CCOCC1 (stereo unspecified),> 100,,,> 100,> 100,> 100,> 100,,> 100,,,,,,,,,,,
Cc1cc(=O)[nH]c2c1C(=O)C(=O)C=C2,> 100,> 100,> 100,,63.4,47.7,> 100,> 100,63.5,60.5,40.4,38.2,,25.6,28.2,> 100,33.5,23.8,> 100,58.6
O=c1c2ccc(Br)cc2nc(-c2ccccc2)n1NC1OC(CO)C(O)C(O)C1O (stereo unspecified),> 100,,> 100,> 100,> 100,> 100,> 100,> 100,> 100,,,,,,,,,,,
COc1ccc2c(c1)cn1c3ccc(OC)cc3[nH]c(=O)c21,1.11,,0.281,< 0.024,4.92,< 0.028,1.66,1.19,1.25,< 0.0177,,< 0.0155,< 0.0152,0.0382,< 0.0159,0.0574,0.0203,< 0.0172,2.61,1.04
COc1cc(/C=C/C(=O)c2ccc(SC)cc2)cc(OC)c1OC,14.4,37,24.4,23.8,,27.2,31.6,20.5,12,3.6,12.3,4.15,10.9,,11.7,17,6.08,3.27,62.9,9.68
COc1cc(C2C(Cl)C(=O)N2NC(=O)c2ccccc2O)cc(OC)c1OC (stereo unspecified),,> 10,9.06,> 10,> 10,> 10,,> 10,> 10,,,,,,,,,,,
COc1cc(C2C(C(=O)Nc3ccccc3C)=C(C)NC(C)=C2C(=O)Nc2ccccc2C)ccc1O,,,> 100,> 100,> 100,> 100,> 100,> 100,> 100,,,,,,,,,,,
Cc1cc2c(C=O)[nH]nc2c(C#N)c1C,> 100,,> 100,> 100,> 100,61.4,> 100,40.9,> 100,,,,,,,,,,,
COc1ccc(/C=N/C2=C(C#N)C(c3ccccc3)c3ccc4ccccc4c3O2)cc1 (stereo unspecified),> 100,> 100,> 100,> 100,> 100,1.05,> 100,,> 100,0.509,0.279,0.53,0.343,0.645,0.244,0.545,,0.457,> 100,0.493
O=C(NCCOCCO)c1ccc(O)cc1,> 100,,,,,> 100,,,> 100,,,,,,,,,,,
CCn1cc(C(=O)O)c(=O)c2cc(F)c(N3CCNCC3)nc21,> 100,,> 100,> 100,> 100,> 100,> 100,> 100,> 100,,,,,,,,,,,
CSc1nnc2n1-c1ccccc1SCC2,> 100,,> 100,> 100,> 100,> 100,> 100,> 100,> 100,,,,,,,,,,,
COc1cc(Nc2nccc(-c3cnn4ncccc34)n2)cc(OC)c1,> 5.17,> 5.62,0.709,0.822,1.35,0.257,,0.308,2.46,0.0889,0.096,0.0842,0.0509,0.268,0.0637,,0.0754,0.075,1.55,0.122
CN=C(NC#N)NCc1ccccc1,> 100,,> 100,> 100,> 100,> 100,> 100,> 100,> 100,,,,,,,,,,,
CCCCCCCCCCCCCCCc1nc(SCC(=O)O)n[nH]1,> 100,,> 100,> 100,> 100,> 100,> 100,,81.2,,,,,,,,,,,
